The values that follow are results of earlier work, collected in patent publication US20240189475A1 (PUKYONG NATIONAL UNIVERSITY INDUSTRY-UNIVERSITY COOPERATION …, priority 2022, published 2024).

The conditions of the data set: background statement.

Turning to `CC(=O)c1c(O)c(C)c(O)c2c1OC1=CC(=O)C(C(C)=O)C(=O)C12C` (stereo not shown) [UA, usnic acid], the solubility in water entry is “low solubility in water”.
